This passage reports Ki, Ratio Ki and Activity results from ChEMBL document CHEMBL5113419.

In data set [1] the target is T1, Suppressor of tumorigenicity 14 protein (Homo sapiens, UniProt Q9Y5Y6).
T1 sequence (Q9Y5Y6 whole entry): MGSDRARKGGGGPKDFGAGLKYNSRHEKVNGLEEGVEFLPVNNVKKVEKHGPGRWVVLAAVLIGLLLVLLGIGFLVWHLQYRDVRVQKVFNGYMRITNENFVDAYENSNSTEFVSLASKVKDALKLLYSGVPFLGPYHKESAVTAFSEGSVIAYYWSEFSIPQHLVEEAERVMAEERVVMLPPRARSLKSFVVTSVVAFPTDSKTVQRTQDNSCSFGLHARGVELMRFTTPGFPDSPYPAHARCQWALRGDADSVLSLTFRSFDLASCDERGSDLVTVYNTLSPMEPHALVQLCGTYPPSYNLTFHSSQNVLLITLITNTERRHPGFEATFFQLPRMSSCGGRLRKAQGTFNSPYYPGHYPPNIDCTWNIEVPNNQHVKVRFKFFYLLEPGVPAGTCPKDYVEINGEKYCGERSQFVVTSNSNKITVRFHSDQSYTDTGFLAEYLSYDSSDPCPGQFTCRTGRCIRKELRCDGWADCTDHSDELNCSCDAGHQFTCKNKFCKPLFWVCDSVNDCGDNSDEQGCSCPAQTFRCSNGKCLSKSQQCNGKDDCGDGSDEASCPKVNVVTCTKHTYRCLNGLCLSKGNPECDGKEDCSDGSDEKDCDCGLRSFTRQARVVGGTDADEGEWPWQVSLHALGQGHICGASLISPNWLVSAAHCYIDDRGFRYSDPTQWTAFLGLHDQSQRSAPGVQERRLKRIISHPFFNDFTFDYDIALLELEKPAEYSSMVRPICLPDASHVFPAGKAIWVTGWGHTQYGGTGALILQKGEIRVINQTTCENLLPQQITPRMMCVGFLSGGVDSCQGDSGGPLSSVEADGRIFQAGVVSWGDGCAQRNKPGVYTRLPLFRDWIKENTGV
Description: Binding affinity to N-terminal MRGS(His)6GSDDDDK-tagged Matriptase (unknown origin) expressed in Escherichia coli assessed as inhibition constant using Mes-DArg-Pro-Arg-AMC as substrate.

The target in the next data set is Prothrombin (Bos taurus, UniProt P00735). In words: Binding affinity to bovine thrombin assessed as inhibition constant using tosyl-Gly-Pro-Arg-AMC as substrate.
A further data set has as its target Coagulation factor X (Homo sapiens, UniProt P00742). Description: Binding affinity to FXa (unknown origin) using Mes-DArg-Pro-Arg-AMC as substrate.
Data set [2] in a line: Selectivity ratio of Ki for binding affinity to bovine thrombin assessed as inhibition constant using tosyl-Gly-Pro-Arg-AMC as substrate to Ki for binding affinity to N-terminal MRGS(His)6GSDDDDK-tagged Matriptase (unknown origin) expressed in Escherichia coli assessed as inhibition constant using Mes-DArg-Pro-Arg-AMC as substrate. As to conditions: Homo sapiens.
The species named for another data set is Homo sapiens. Description: Selectivity ratio of Ki for binding affinity to FXa (unknown origin) using Mes-DArg-Pro-Arg-AMC as substrate to Ki for binding affinity to N-terminal MRGS(His)6GSDDDDK-tagged Matriptase (unknown origin ) expressed in Escherichia coli assessed as inhibition constant using Mes-DArg-Pro-Arg-AMC as substrate.
Data set [3] in a line: Binding affinity to bovine trypsin assessed as inhibition constant […]. On the set-up: species or system Bos taurus.
A further data set relates to MDCK-II. Description: Cytotoxicity against MDCK-II cells assessed as reduction in cell viability at 50 uM measured for 24 hrs by Celltiter-glo luminescent assay. It is filed as toxicity, cell-based, Canis lupus familiaris. As to conditions: dog. (Cellular ATP, detected with luciferase, serves as a proxy for viable cell number.)
Data set [4] has as its system Influenza A virus. Description: Antiviral activity against Influenza A virus H9N2 infected in MDCK-II cells assessed as inhibition of viral replication measured after 24 hrs by immunostaining based assay. The format is functional, organism-based. Conditions: DDE = dose-dependent effect.
In data set [5] the test system is Influenza A virus. In words: Antiviral activity against Influenza A virus H9N2 infected in MDCK-II cells assessed as reduction in comet-shaped foci at 50 uM measured after 24 hrs by immunostaining based assay. The format is functional, organism-based.
The test system of data set [6] is Influenza A virus. In words: Antiviral activity against Influenza A virus H9N2 infected in MDCK-II cells assessed as reduction in comet-shaped foci at 20 uM measured after 24 hrs by immunostaining based assay. It is filed as functional, organism-based.
Data set [7] concerns Influenza A virus. Description: Antiviral activity against Influenza A virus H9N2 infected in MDCK-II cells assessed as reduction in viral titer in supernatants at 5 to 50 uM measured after 24 hrs by plaque assay. Conditions: dose 5-50 µM. The format is functional, organism-based.
Data set [8] has as its system Influenza A virus. In words: Antiviral activity against Influenza A virus H9N2 infected in MDCK-II cells assessed as inhibition of viral replication at 5 uM measured after 24 hrs by immunostaining based assay. It is filed as functional, organism-based.

Activity calls are given as the source filed them. The calls are words filed in the database; no cut-off is given here.

Sequence of Coagulation factor X (P00742 41-179 limits assumed): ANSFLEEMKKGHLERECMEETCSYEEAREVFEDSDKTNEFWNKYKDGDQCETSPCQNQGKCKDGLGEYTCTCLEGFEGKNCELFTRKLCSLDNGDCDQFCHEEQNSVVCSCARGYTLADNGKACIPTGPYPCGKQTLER
Sequence of Coagulation factor X (P00742 235-488 limits assumed): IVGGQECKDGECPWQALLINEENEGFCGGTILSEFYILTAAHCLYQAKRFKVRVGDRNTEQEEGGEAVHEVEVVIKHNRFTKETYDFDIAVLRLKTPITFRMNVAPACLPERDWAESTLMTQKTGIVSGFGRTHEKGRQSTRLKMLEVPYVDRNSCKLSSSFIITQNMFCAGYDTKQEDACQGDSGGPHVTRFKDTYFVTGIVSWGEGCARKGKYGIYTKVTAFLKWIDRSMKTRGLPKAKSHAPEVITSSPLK

Broadly, the Ki is the dissociation constant of the complex between target and ligand, obtained from inhibition or displacement. For `CC(C)(C)NC(=O)NC1CCN(C(=O)[C@H](Cc2cccc(C(=N)N)c2)NS(=O)(=O)c2cccc(-c3ccc(CO)c(F)c3)c2)CC1`, the Ki in [1] was 15 nM; on Prothrombin, 23000 nM; at Coagulation factor X, 190 nM; in [3], 0.6 nM. For the same molecule, the Ratio Ki in [2] turned out to be 1530; in the data set listed under Homo sapiens, 13. For the same molecule, the Activity result in the data set on MDCK-II is “Toxic”; in the data set on Influenza A virus [4] it was “Dde”. Moreover, the outcome in the data set on Influenza A virus [5], in the data set with Influenza A virus [6] and with Influenza A virus [7] was Active.

Take `CC(C)(C)NC(=O)NC1CCN(C(=O)[C@H](Cc2cccc(C(=N)N)c2)NS(=O)(=O)c2cccc(-c3cccc(C(=N)N)c3)c2)CC1`: the result in the data set with Influenza A virus [8], in the data set with Influenza A virus [5], in the data set on Influenza A virus [6] and in the data set on Influenza A virus [7] was Active. The inhibition constant (Ki) in [1] was determined as 0.7 nM; on Prothrombin it was 2550 nM; at Coagulation factor X, 9 nM; in [3], 5 nM. Further, the Ratio Ki in data set [2] turned out to be 3640; in the data set listed under Homo sapiens, 13. Besides, the figures for the Activity entry in the data set on MDCK-II and in the data set on Influenza A virus [4] were “Toxic” and “Dde”, respectively.
